The text below walks through data of ChEMBL document CHEMBL5143705, “Design, synthesis and structure-activity relationship of 4-(1,1,1,3,3,3-hexafluoro-2-hydroxyisoprop-2-yl)phenylsilane derivatives as liver X receptor agonists” (Bioorg Med Chem, 2022).

pEC50: −log10 of the molar value.

Type in all cases: cell-based
The target of data set [1] is T1, Oxysterols receptor LXR-alpha (Homo sapiens, UniProt Q13133).
T1 sequence (Q13133 whole entry): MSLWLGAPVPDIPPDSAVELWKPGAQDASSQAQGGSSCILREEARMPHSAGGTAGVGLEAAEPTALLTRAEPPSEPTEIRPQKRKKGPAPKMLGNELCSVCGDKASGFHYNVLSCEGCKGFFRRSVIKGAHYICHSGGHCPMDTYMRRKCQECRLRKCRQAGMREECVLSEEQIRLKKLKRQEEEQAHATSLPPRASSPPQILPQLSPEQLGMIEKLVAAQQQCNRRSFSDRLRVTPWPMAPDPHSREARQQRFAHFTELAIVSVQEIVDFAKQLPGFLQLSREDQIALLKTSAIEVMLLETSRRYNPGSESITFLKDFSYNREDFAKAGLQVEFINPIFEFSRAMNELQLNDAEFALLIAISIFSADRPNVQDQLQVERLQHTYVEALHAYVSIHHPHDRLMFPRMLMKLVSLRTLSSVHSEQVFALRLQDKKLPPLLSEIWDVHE
The data set can be described thus: Agonist activity against human LXRalpha expressed in human HEK293T cells co-expressing CMX-GAL4N-hLXRalpha incubated for 24 hrs by reporter gene assay.

Data set [2] has as its target T2, Oxysterols receptor LXR-beta (Homo sapiens, UniProt P55055).
T2 sequence (P55055 whole entry): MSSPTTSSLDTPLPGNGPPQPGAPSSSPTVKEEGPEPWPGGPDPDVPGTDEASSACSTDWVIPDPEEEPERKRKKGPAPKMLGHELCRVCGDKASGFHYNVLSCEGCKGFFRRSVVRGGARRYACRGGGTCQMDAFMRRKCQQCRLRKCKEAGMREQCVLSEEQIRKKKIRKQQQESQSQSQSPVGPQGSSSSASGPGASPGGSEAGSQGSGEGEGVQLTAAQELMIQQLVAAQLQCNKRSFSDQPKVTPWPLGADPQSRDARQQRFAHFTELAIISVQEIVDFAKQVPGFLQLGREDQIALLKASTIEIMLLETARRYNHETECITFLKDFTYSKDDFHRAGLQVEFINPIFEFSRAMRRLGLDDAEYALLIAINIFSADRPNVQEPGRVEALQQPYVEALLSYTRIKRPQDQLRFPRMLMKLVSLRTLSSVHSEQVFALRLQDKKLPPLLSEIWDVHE
Put plainly: Agonist activity against human LXRbeta expressed in human HEK293T cells co-expressing CMX-GAL4N-hLXRbeta incubated for 24 hrs by reporter gene assay. (Reporter assays use an easily measured gene product as a stand-in for the process of interest.)

The nature of data set [3]: Toxicity in human HEK293 cells assessed as reduction in cell viability at 10 uM. The conditions noted are these: hek293, 10 µM.
The target in data set [4] is T3, Oxysterols receptor LXR-alpha (Homo sapiens) (UniProt Q13133).
T3 sequence (whole entry): T1 sequence (Q13133 whole entry)
The data set can be described thus: Partial agonist activity against human LXRalpha in human HEK293T cells incubated for 24 hrs by reporter gene assay relative to T0901317.

The target in data set [5] is T4, Oxysterols receptor LXR-beta (Homo sapiens) (UniProt P55055).
T4 sequence (whole entry): T2 sequence (P55055 whole entry)
The data set can be described thus: Partial agonist activity against human LXRbeta in human HEK293T cells incubated for 24 hrs by reporter gene assay T0901317.

Turning to `C[Si](C)(c1ccccc1)c1ccc(C(O)(C(F)(F)F)C(F)(F)F)cc1`, the pEC50 in data set [1] was 5.67; in data set [2] it was 6.13. Besides, the Activity entry in data set [3] is “Non-Toxic”.

For `CC(C)(C)[Si](C)(C)c1ccc(C(O)(C(F)(F)F)C(F)(F)F)cc1`, the pEC50 in data set [1] is 5.95; in data set [2], 6.19. Besides, in data set [3], the Activity result is listed as “Non-Toxic”.

Turning to `CC[Si](CC)(CC)c1ccc(C(O)(C(F)(F)F)C(F)(F)F)cc1`, the pEC50 in data set [1] is 6.21; in data set [2], 6.28. Also, the Activity result in data set [3] is on record as “Non-Toxic”.

In the case of `C[Si](C)(C)c1ccc(C(O)(C(F)(F)F)C(F)(F)F)cc1`, the values for the pEC50 in data set [1] and in data set [2] were 5.51 and 5.85, respectively. In addition, the Activity entry in data set [3] is on record as “Non-Toxic”.

Consider `C[Si](O)(c1ccccc1)c1ccc(C(O)(C(F)(F)F)C(F)(F)F)cc1` (stereo not given), for which the pEC50 in data set [1] is 5.07; in data set [2] it was 5.30. In addition, the Activity result in data set [3] was “Non-Toxic”.

Take `C[Si](C)(CCCO)c1ccc(C(O)(C(F)(F)F)C(F)(F)F)cc1`: the pEC50 in data set [1] is 5.35; in data set [2], 5.39. Also, in data set [3], the Activity entry is “Non-Toxic”.

As for `C[Si](C)(CCO)c1ccc(C(O)(C(F)(F)F)C(F)(F)F)cc1`, the pEC50 in data set [1] is 5.84; in data set [2], 5.76. Besides, in data set [3], the Activity entry is given as “Non-Toxic”.

As to `C[Si](C)(C)[Si](C)(C)c1ccc(C(O)(C(F)(F)F)C(F)(F)F)cc1`, the pEC50 in data set [1] is 6.24; in data set [2], 6.29. Besides, the Activity result in data set [3] is listed as “Non-Toxic”.

In the case of `C=C[Si](C)(C)c1ccc(C(O)(C(F)(F)F)C(F)(F)F)cc1`, the pEC50 is 5.69 in data set [1] and 5.74 in data set [2]. Moreover, the Activity result in data set [3] is “Non-Toxic”.

In the case of `CCCC[Si](C)(C)c1ccc(C(O)(C(F)(F)F)C(F)(F)F)cc1`, the values for the pEC50 in data set [1] and in data set [2] were 5.63 and 5.77, respectively. In data set [3], the Activity result is on record as “Non-Toxic”.

On to `C=CC[Si](C)(C)c1ccc(C(O)(C(F)(F)F)C(F)(F)F)cc1`, for which the pEC50 in data set [1] is 6.30; in data set [2], 6.35. Besides, the Activity entry in data set [3] is “Non-Toxic”.

Consider `O=S(=O)(c1ccccc1)N(CC(F)(F)F)c1ccc(C(O)(C(F)(F)F)C(F)(F)F)cc1` [T091317], for which the Activity result in data set [3] is recorded as “Non-Toxic”.

As to `CCC[Si](CCC)(CCC)c1ccc(C(O)(C(F)(F)F)C(F)(F)F)cc1`, the figures for the pEC50 in data set [1] and in data set [2] were 6.37 and 6.23, respectively. For the same compound, the Activity entry in data set [3] is “Non-Toxic”.

For `C[Si](C)(c1ccc(C(O)(C(F)(F)F)C(F)(F)F)cc1)C1CCCCC1`, the pEC50 is 5.84 in data set [1] and 6.13 in data set [2]. Moreover, the Activity result in data set [3] is listed as “Non-Toxic”.

For `CN(c1ccc(C(O)(C(F)(F)F)C(F)(F)F)cc1)S(=O)(=O)c1ccccc1`, the Activity result in data set [3] is recorded as “Non-Toxic”.

In the case of `C[Si](C)(Cc1ccccc1)c1ccc(C(O)(C(F)(F)F)C(F)(F)F)cc1`, the pEC50 in data set [1] is 6.03; in data set [2] it was 6.14. Further, the Activity result in data set [3] is “Non-Toxic”.

Take `CC(O)[Si](C)(C)c1ccc(C(O)(C(F)(F)F)C(F)(F)F)cc1` (stereo not given): the pEC50 in data set [1] is 5.35; in data set [2] it was 5.48. The Activity result in data set [3] was “Non-Toxic”.

For `CC[Si](C)(CC)c1ccc(C(O)(C(F)(F)F)C(F)(F)F)cc1`, the pEC50 is 6.23 in data set [1] and 6.16 in data set [2]. Further, in data set [3], the Activity entry was “Non-Toxic”.

As for `OC(c1ccc([Si](Cc2ccccc2)(Cc2ccccc2)Cc2ccccc2)cc1)(C(F)(F)F)C(F)(F)F`, the pEC50 in data set [1] was 5.30; in data set [2], 5.70. Also, the Activity entry in data set [3] is “Non-Toxic”; in data set [4] it was 19%; in data set [5], 27%.

As usually defined, the pEC50 is the EC50 on a negative log10 scale, so that one unit is a factor of ten. Low values mean a high EC50, high ones a low EC50.
